One assay deals with HRAS wild-type protein (Homo sapiens, UniProt P01112). Briefly: Binding to HRAS by surface plasmon resonance (SPR), KD and KD ratio to KRAS. The note with it: ratio of KD value for HRAS wild-type protein to KD value for KRAS (SPR). A digest of the protocol:
(§1)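 Running buffer contained 10 µM GDP and 10 mM MgCl2 to keep RAS in the GDP state, with 4% DMSO at pH 7.4. Compounds were flowed at 100 µL/min in 75 s steps of rising concentration over captured biotin-Avi RAS at 30°C. Sensorgrams were fitted 1:1 for KD.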
On the technique in general: Surface plasmon resonance follows binding to a sensor surface in real time, without labels.

Assay [1] concerns the target GDP-bound NRAS wild-type protein (Homo sapiens, UniProt P01111). Nature of the assay: Binding to NRAS by surface plasmon resonance (SPR), KD and KD ratio to KRAS. As to conditions: ratio of KD value for GDP-bound NRAS wild-type protein to KD value for KRAS (SPR). A digest of the protocol:
as §1

The subject of assay [2] is human lung cancer strain NCI-H441. In kind it is cell-based. The essentials: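 Step one: dispense the test compound in serial DMSO dilutions. Step three: add the reagent and measure […].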

From patent EP4603105A1, “PHARMACEUTICAL COMPOSITION CONTAINING CYCLIC COMPOUND HAVING SELECTIVE KRAS INHIBITORY EFFECT AGAINST HRAS AND NRAS” (CHUGAI SEIYAKU KABUSHIKI KAISHA, priority 2022, dated 2024) come the findings set out here.

Sequence of GDP-bound NRAS wild-type protein (P01111 whole entry): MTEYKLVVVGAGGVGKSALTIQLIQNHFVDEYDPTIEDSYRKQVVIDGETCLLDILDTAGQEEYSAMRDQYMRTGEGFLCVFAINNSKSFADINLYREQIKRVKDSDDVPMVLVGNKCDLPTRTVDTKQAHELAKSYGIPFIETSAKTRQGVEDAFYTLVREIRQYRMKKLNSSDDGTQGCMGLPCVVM
Sequence of HRAS wild-type protein (P01112 whole entry): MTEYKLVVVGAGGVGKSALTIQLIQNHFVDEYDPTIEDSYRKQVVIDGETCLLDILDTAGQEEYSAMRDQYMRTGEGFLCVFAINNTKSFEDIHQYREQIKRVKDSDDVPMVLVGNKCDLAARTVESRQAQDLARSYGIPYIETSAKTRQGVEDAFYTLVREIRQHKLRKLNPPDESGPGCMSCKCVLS

In general, IC50 refers to the concentration needed to halve the response being measured. A higher IC50 goes with weaker potency. For the compound `CCCOC[C@H]1C(=O)N[C@@H]([C@@H](C)CC)C(=O)N(C)CC(=O)N(C)[C@H]2C/C=C\CCN(C2=O)[C@@H](Cc2ccc(C(F)(F)F)cc2)C(=O)N(C)CC(=O)N[C@@H](CCc2cc(F)c(C(F)(F)F)c(F)c2)C(=O)N2C[C@H](OCC)C[C@H]2C(=O)NC2(CCC2)C(=O)N(C)[C@@H](C2CCCC2)C(=O)N(C)[C@H](C(=O)N(C)CCC)CC(=O)N1C` [PP1668], the “HRAS /KRAS” value at HRAS wild-type protein is “A (a compound having 10 or more and less than 20 is denoted as A)”. The “NRAS /KRAS” value in assay [1] is “A (a compound having 10 or more and less than 20 is denoted as A)”. The IC50 in assay [2] came to 5.3 nM.
`CCCN(C)C(=O)[C@@H]1CC(=O)N(C)[C@@H](CC)C(=O)N[C@@H]([C@@H](C)CC)C(=O)N(C)CC(=O)N(C)[C@H]2C/C=C\CCN(C2=O)[C@@H](Cc2ccc(C(F)(F)F)cc2)C(=O)N(C)CC(=O)N[C@@H](CCc2cc(F)c(C(F)(F)F)c(F)c2)C(=O)N2C[C@H](OCC)C[C@H]2C(=O)NC2(CC(C)(C)C2)C(=O)N(C)[C@@H](C2CCCC2)C(=O)N1C` [PP1670]: the “HRAS /KRAS” value on HRAS wild-type protein was “A (a compound having 10 or more and less than 20 is denoted as A)”. Further, the “NRAS /KRAS” value in assay [1] was “A (a compound having 10 or more and less than 20 is denoted as A)”. For the same compound, inhibition in assay [2] was half-maximal at 6.7 nM (IC50).
In the case of `CCO[C@@H]1C[C@H]2C(=O)NC3(CC(C)(C)C3)C(=O)N(C)[C@@H](C3CCCC3)C(=O)N(C)[C@H](C(=O)N(C)CC)CC(=O)N(C)[C@@H](COC)C(=O)N[C@@H]([C@@H](C)CC)C(=O)N(C)CC(=O)N(C)[C@H]3C/C=C\CCN(C3=O)[C@@H](Cc3ccc(C(F)(F)F)cc3)C(=O)N(C)CC(=O)N[C@@H](CCc3cc(F)c(C(F)(F)F)c(F)c3)C(=O)N2C1` [PP1671], the “HRAS /KRAS” value at HRAS wild-type protein was “A (a compound having 10 or more and less than 20 is denoted as A)”. In addition, the “NRAS /KRAS” value in assay [1] is “A (a compound having 10 or more and less than 20 is denoted as A)”. In assay [2], this compound came in with an IC50 of 3 nM.
For the compound `CCCN(C)C(=O)[C@@H]1CC(=O)N(C)[C@@H](COC)C(=O)N[C@@H]([C@@H](C)CC)C(=O)N(C)CC(=O)N(C)[C@H]2C/C=C\CCN(C2=O)[C@@H](Cc2ccc(C(F)(F)F)cc2)C(=O)N(C)CC(=O)N[C@@H](CCc2cc(F)c(C(F)(F)F)c(F)c2)C(=O)N2C[C@H](OCC)C[C@H]2C(=O)NC2(CC(C)(C)C2)C(=O)N(C)[C@@H](C2CCCC2)C(=O)N1C` [PP1672], at HRAS wild-type protein, the “HRAS /KRAS” value is “A (a compound having 10 or more and less than 20 is denoted as A)”. Moreover, the “NRAS /KRAS” value in assay [1] was “A (a compound having 10 or more and less than 20 is denoted as A)”. For the same compound, in assay [2], the midpoint of inhibition, the IC50, lay at 6 nM.
For the compound `CCCOC[C@H]1C(=O)N[C@@H]([C@@H](C)CC)C(=O)N(C)CC(=O)N(C)[C@H]2C/C=C\CCN(C2=O)[C@@H](Cc2ccc(C(F)(F)F)cc2)C(=O)N(C)CC(=O)N[C@@H](CCc2cc(F)c(C(F)(F)F)c(F)c2)C(=O)N2C[C@H](OCC)C[C@H]2C(=O)NC2(CC(C)(C)C2)C(=O)N(C)[C@@H](C2CCCC2)C(=O)N(C)[C@H](C(=O)N(C)CCC)CC(=O)N1C` [PP1673], at HRAS wild-type protein, the “HRAS /KRAS” value is “A (a compound having 10 or more and less than 20 is denoted as A)”. In assay [1], the “NRAS /KRAS” value was “A (a compound having 10 or more and less than 20 is denoted as A)”. Moreover, 6 nM corresponded to half-maximal inhibition in assay [2] (IC50).
Turning to `CCO[C@@H]1C[C@H]2C(=O)NC3(CC(C)(C)C3)C(=O)N(C)[C@@H](C3CCCC3)C(=O)N(C)[C@H](C(=O)N(C)C)CC(=O)N(C)[C@@H](C)C(=O)N[C@@H]([C@@H](C)CC)C(=O)N(C)CC(=O)N(C)[C@H]3C/C=C\CCN(C3=O)[C@@H](Cc3ccc(C(F)(F)F)cc3)C(=O)N(C)CC(=O)N[C@@H](CCc3ccc(C(F)(F)F)c(OC)c3)C(=O)N2C1` [PP1674], at HRAS wild-type protein, the “HRAS /KRAS” value is “A (a compound having 10 or more and less than 20 is denoted as A)”. Besides, the “NRAS /KRAS” value in assay [1] was “A (a compound having 10 or more and less than 20 is denoted as A)”. Besides, in assay [2], the IC50 worked out at 5.1 nM.
Turning to `CCO[C@@H]1C[C@H]2C(=O)NC3(CC(C)(C)C3)C(=O)N(C)[C@@H](C3CCCC3)C(=O)N(C)[C@H](C(=O)N(C)C)CC(=O)N(C)[C@@H](CC(F)(F)F)C(=O)N[C@@H]([C@@H](C)CC)C(=O)N(C)CC(=O)N(C)[C@H]3C/C=C\CCN(C3=O)[C@@H](Cc3ccc(C(F)(F)F)cc3)C(=O)N(C)CC(=O)N[C@@H](CCc3ccc(C(F)(F)F)c(OC)c3)C(=O)N2C1` [PP1675], the “HRAS /KRAS” value on HRAS wild-type protein was “B (a compound having 3 or more and less than 10 is denoted as B)”. Also, the “NRAS /KRAS” value in assay [1] was “A (a compound having 10 or more and less than 20 is denoted as A)”. The same compound registered a half-inhibitory concentration (IC50) in assay [2] of 3 nM.
Take `CCO[C@@H]1C[C@H]2C(=O)NC3(CC(C)(C)C3)C(=O)N(C)[C@@H](C3CCCC3)C(=O)N(C)[C@H](C(=O)N(C)CC)CC(=O)N(C)[C@@H](COC)C(=O)N[C@@H]([C@@H](C)CC)C(=O)N(C)CC(=O)N(C)[C@H]3C/C=C\CCN(C3=O)[C@@H](Cc3ccc(C(F)(F)F)cc3)C(=O)N(C)CC(=O)N[C@@H](CCc3ccc(C(F)(F)F)c(OC)c3)C(=O)N2C1` [PP1679]: the “HRAS /KRAS” value on HRAS wild-type protein was “A (a compound having 10 or more and less than 20 is denoted as A)”. Moreover, the “NRAS /KRAS” value in assay [1] is “A (a compound having 10 or more and less than 20 is denoted as A)”. In assay [2], this compound gave a half-maximal inhibitory concentration (IC50) of 3.1 nM.
Turning to `CC[C@H](C)[C@@H]1NC(=O)[C@H](CC(F)(F)F)N(C)C(=O)C[C@@H](C(=O)N(C)C)N(C)C(=O)[C@H](C2CCCC2)N(C)C(=O)C2(CC(C)(C)C2)NC(=O)[C@@H]2C[C@H](C)CN2C(=O)[C@H](CCc2cc(F)c(C(F)(F)F)c(F)c2)NC(=O)CN(C)C(=O)[C@H](Cc2ccc(C(F)(F)F)cc2)N2CC/C=C\C[C@@H](C2=O)N(C)C(=O)CN(C)C1=O` [PP1682], the “HRAS /KRAS” value on HRAS wild-type protein was “A (a compound having 10 or more and less than 20 is denoted as A)”. The “NRAS /KRAS” value in assay [1] is reported as “AA (a compound having 20 or more is denoted as AA)”. In addition, the 50% inhibitory concentration (IC50) in assay [2] stood at 2.6 nM.
Regarding `CCC[C@H]1C(=O)N[C@@H]([C@@H](C)CC)C(=O)N(C)CC(=O)N(C)[C@H]2C/C=C\CCN(C2=O)[C@@H](Cc2ccc(C(F)(F)F)cc2)C(=O)N(C)CC(=O)N[C@@H](CCc2cc(F)c(C(F)(F)F)c(F)c2)C(=O)N2C[C@@H](C)C[C@H]2C(=O)NC2(CC(C)(C)C2)C(=O)N(C)[C@@H](C2CCCC2)C(=O)N(C)[C@H](C(=O)N(C)C)CC(=O)N1C` [PP1683], the “HRAS /KRAS” value on HRAS wild-type protein is “A (a compound having 10 or more and less than 20 is denoted as A)”. Also, in assay [1], the “NRAS /KRAS” value was “A (a compound having 10 or more and less than 20 is denoted as A)”. Moreover, it took 2.5 nM to reach half-maximal inhibition in assay [2] (IC50).
For the compound `CC[C@H](C)[C@@H]1NC(=O)[C@H](CC2CCC2)N(C)C(=O)C[C@@H](C(=O)N(C)C)N(C)C(=O)[C@H](C2CCCC2)N(C)C(=O)C2(CC(C)(C)C2)NC(=O)[C@@H]2C[C@H](C)CN2C(=O)[C@H](CCc2cc(F)c(C(F)(F)F)c(F)c2)NC(=O)CN(C)C(=O)[C@H](Cc2ccc(C(F)(F)F)cc2)N2CC/C=C\C[C@@H](C2=O)N(C)C(=O)CN(C)C1=O` [PP1684], at HRAS wild-type protein, the “HRAS /KRAS” value was “A (a compound having 10 or more and less than 20 is denoted as A)”. Also, the “NRAS /KRAS” value in assay [1] was “A (a compound having 10 or more and less than 20 is denoted as A)”. This compound also registered an IC50 in assay [2] of 7.7 nM.
